The source made the active and inactive calls. No cut-off for these calls is given here.
What was measured:
[1] = system: Trypanosoma cruzi; experiment: Antitrypanosomal activity against Trypanosoma cruzi epimastigotes measured after 72 hrs by Neubauer hemocytometer counting method; assay type: functional, organism-based
[2] = system: Trypanosoma cruzi; experiment: Antitrypanosomal activity against bloodstream Trypanosoma cruzi trypomastigotes measured after 24 hrs by Neubauer chamber method; assay type: functional, organism-based
[3] = Selectivity index, ratio of CC50 African green monkey Vero cells to IC50 for Trypanosoma cruzi trypomastigotes; assay type: toxicity; settings: read-out: Selectivity Index
[4] = Cytotoxicity against African green monkey Vero cells assessed as reduction in cell viability measured after 24 hrs by MTT assay; assay type: cell-based; settings: chlorocebus sabaeus
[5] = Selectivity index, ratio of CC50 African green monkey Vero cells to IC50 for Trypanosoma cruzi epimastigotes; assay type: toxicity; settings: read-out: Selectivity Index
[6] = system: Trypanosoma cruzi; experiment: Antitrypanosomal activity against […] expressing beta-galactosidase infected in african green monkey VERO cells incubated for 5 days measured by microplate reader assay; assay type: functional, organism-based; settings: 120 h
[7] = system: Trypanosoma cruzi; experiment: Anti-chagasic activity against Trypanosoma cruzi trypomastigotes infected in C3H mouse assessed as well-groomed fur and alert at 10 mg/kg, po treated 10 days post infection measured on day 19; assay type: functional, organism-based; settings: time 9.0 day
[8] = system: Trypanosoma cruzi; experiment: Anti-chagasic activity against Trypanosoma cruzi trypomastigotes infected in C3H mouse assessed as reduction in parasitemia at 10 mg/kg, po treated 10 days post infection for 7 consecutive days by Neubauer chamber counting method relative to control; assay type: functional; set-up: scale not given: the % may be the effect or the level left; settings: time 7 day
[9] = system: Trypanosoma cruzi; experiment: Anti-chagasic activity against Trypanosoma cruzi trypomastigotes infected in C3H mouse assessed as increase in body weight at 10 mg/kg, po treated 10 days post infection measured on day 19 (reference value: -1.8%); assay type: functional; settings: time 9.0 day
[10] = system: Trypanosoma cruzi; experiment: Anti-chagasic activity against Trypanosoma cruzi trypomastigotes infected in C3H mouse assessed as active behaviour at 10 mg/kg, po treated 10 days post infection measured on day 19; assay type: functional, organism-based; settings: time 9.0 day
[11] = Selectivity index, ratio of CC50 African green monkey Vero cells to IC50 for Trypanosoma cruzi amastigotes; assay type: toxicity; settings: read-out: Selectivity Index
[12] = system: Trypanosoma cruzi; experiment: Anti-chagasic activity against Trypanosoma cruzi trypomastigotes infected in C3H mouse assessed as physically healthy with shiny appearance at 10 mg/kg, po treated 10 days post infection measured on day 19; assay type: functional, organism-based; settings: time 9.0 day
[13] = Toxicity in C3H mouse infected with Trypanosoma cruzi trypomastigotes assessed as mortality at 10 to 50 mg/kg, po treated 10 days post infection for 7 consecutive days; assay type: organism-based; settings: in vivo, 168 h, dose 10-50 mg/kg, time 7 day
[14] = system: Trypanosoma cruzi; experiment: Anti-chagasic activity against Trypanosoma cruzi trypomastigotes infected in C3H mouse assessed as reduction in parasitemia at 50 mg/kg, po treated 10 days post infection for 7 consecutive days by Neubauer chamber counting method relative to control; assay type: functional; settings: time 7.0 day

| Compound | IC50 [1] | IC50 [2] | selectivity ratio [3] | CC50 at 24 h [4] | selectivity ratio [5] | IC50 [6] | Activity [7] | Activity [8] | Activity [9] | Activity [10] | selectivity ratio [11] | Activity [12] | Activity [13] | Activity [14] |
| --- | --- | --- | --- | --- | --- | --- | --- | --- | --- | --- | --- | --- | --- | --- |
| O=C(O)c1c(CNCCN2CCOCC2)nc2ccc(Cl)cc2c1-c1ccccc1 | 11.2 µM | 11.9 µM | 18.5 | 221 µM | 19.7 | – | – | – | – | – | – | – | – | – |
| O=C(O)c1c(CN2CCN(CCO)CC2)nc2ccc(Cl)cc2c1-c1ccccc1 | 4.2 µM | 56.1 µM | 0.6 | 36 µM | 8.6 | – | – | – | – | – | – | – | – | – |
| O=C(Cn1ccnc1[N+](=O)[O-])NCc1ccccc1 [BENZNIDAZOLE] | 5.8 µM | 34.1 µM | 20.7 | 706 µM | 122 | 3.6 µM | Active | 58.9% | inactive | Active | 196 | Active | Non-Toxic | inactive |

From ChEMBL document CHEMBL4680129, “Hit-to-lead optimization of novel 2-alkylaminomethylquinoline derivatives as anti-chagas agents” (Eur J Med Chem, 2020)
